From patent publication US20220290114A1 (priority 2019, published 2022)
Like-named read-outs stand apart in the source and are kept apart here.

Assays:
[1] = test system: C. perfringens reference strains (NCTC 2837, 8235, 8237, 8238, 8239, 8359, 8678, 10578); format: cell-based, Clostridium perfringens; conditions: for effect on C. perfringens growth in spot assay: 10 μg/ml chloramphenicol, 20 μg/ml spectinomycin, 1 mg/mL lysozyme, 1 mg/mL disodium EDTA; for effect in spot assay: NCTC 8237, FIG. 4, freshly-plated cells and cell lawns
[2] = test system: Clostridium leptum (DSMZ 753); experiment: Spot assay of clarified lysates on non-Cp species; format: cell-based; set-up: key: The presence of antimicrobial activity is denoted by a ‘+’; the lack of antimicrobial activity is denoted by a ‘−’
[3] = test system: Clostridium cellobioparum (DSMZ 1351); experiment: Spot assay of clarified lysates on non-Cp species; format: cell-based; set-up: key: The presence of antimicrobial activity is denoted by a ‘+’; the lack of antimicrobial activity is denoted by a ‘−’
[4] = test system: Clostridium colinum (DSMZ 6011); experiment: Spot assay of clarified lysates on non-Cp species; format: cell-based; set-up: key: The presence of antimicrobial activity is denoted by a ‘+’; the lack of antimicrobial activity is denoted by a ‘−’
[5] = test system: Bifidobacterium adolescentis (DSMZ 20083); experiment: Spot assay of clarified lysates on non-Cp species; format: cell-based; set-up: key: The presence of antimicrobial activity is denoted by a ‘+’; the lack of antimicrobial activity is denoted by a ‘−’
[6] = test system: C. perfringens NCTC reference strains and APHA field isolates; format: cell-based, Clostridium perfringens; set-up: key to bacteriolytic activity, cell lawn: (−) indicates no visible lysis; +/−, +, ++, +++ correspond to increasingly clear lysis halos around the paper disks; +/−, +, ++, +++ correspond to increasingly clear lysis halos around the paper disks; +/−, +, ++, +++ correspond to increasingly clear lysis halos around the paper disks; +/−, +, ++, +++ correspond to increasingly clear lysis halos around the paper disks
[7] = test system: C. perfringens reference strains (NCTC 2837, 8237, 8238, 8239); format: cell-based, Clostridium perfringens
[8] = test system: C. perfringens strain Cp6; format: cell-based, Clostridium perfringens
[9] = test system: C. perfringens Cp6 PGN; format: biochemical, Clostridium perfringens; conditions: 54D extract, 3× replicates, fresh PGN stock
[10] = NCTC 2837, FP (freshly-plated cells)

Molecule: O=C([O-])CN(CCN(CC(=O)[O-])CC(=O)O)CC(=O)O.[Na+].[Na+] [disodium EDTA]
- effect on C. perfringens growth in spot assay [1]: no effect
- effect on freshly-plated cells in spot assay ([1]; 10 mM EDTA, screening set 2): inhibitory effect

Molecule: O=C(N[C@H](CO)[C@H](O)c1ccc([N+](=O)[O-])cc1)C(Cl)Cl [Chloramphenicol]
- effect on C. perfringens growth in spot assay [1]: no effect
- effect in spot assay [1]: no effect

Molecule: Lysozyme: Chicken hen egg white lysozyme, reference enzybiotic
- effect on C. perfringens growth in spot assay [1]: no effect
- antimicrobial activity in spot assay (clearance zone) ([1]; NCTC 2837, CL (cell lawn)): −
- antimicrobial activity in spot assay (clearance zone) [1, 10]: −
- antimicrobial activity in spot assay (clearance zone) ([1]; NCTC 8235, CL): −
- antimicrobial activity in spot assay (clearance zone) ([1]; NCTC 8235, FP): −
- antimicrobial activity in spot assay (clearance zone) ([1]; NCTC 8237, CL): −
- antimicrobial activity in spot assay (clearance zone) ([1]; NCTC 8237, FP): −
- antimicrobial activity in spot assay (clearance zone) ([1]; NCTC 8238, CL): −
- antimicrobial activity in spot assay (clearance zone) ([1]; NCTC 8238, FP): −
- antimicrobial activity in spot assay (clearance zone) ([1]; NCTC 8239, CL): −
- antimicrobial activity in spot assay (clearance zone) ([1]; NCTC 8239, FP): −
- antimicrobial activity in spot assay (clearance zone) ([1]; NCTC 8359, CL): −
- antimicrobial activity in spot assay (clearance zone) ([1]; NCTC 8359, FP): +
- antimicrobial activity in spot assay (clearance zone) ([1]; NCTC 8678, CL): −
- antimicrobial activity in spot assay (clearance zone) ([1]; NCTC 8678, FP): −
- antimicrobial activity in spot assay (clearance zone) ([1]; NCTC 10578, CL): −
- antimicrobial activity in spot assay (clearance zone) ([1]; NCTC 10578, FP): −
- antimicrobial activity in spot assay (clearance zone) [2]: −
- antimicrobial activity in spot assay (clearance zone) [3]: −
- antimicrobial activity in spot assay (clearance zone) [4]: −
- antimicrobial activity in spot assay (clearance zone) ([5]; DSMZ 20083, CL): −
- antimicrobial activity in spot assay (clearance zone) ([5]; DSMZ 20083, FP): −
- bacteriolytic activity, cell lawn ([6]; APHA B00907, 50 μg/ml): −
- growth inhibition, freshly plated cells ([6]; APHA B00907, 50 μg/ml): −
- bacteriolytic activity, cell lawn ([6]; APHA B00917, 50 μg/ml): −
- growth inhibition, freshly plated cells ([6]; APHA B00917, 50 μg/ml): −
- bacteriolytic activity, cell lawn ([6]; APHA B00954, 50 μg/ml): −
- growth inhibition, freshly plated cells ([6]; APHA B00954, 50 μg/ml): −
- bacteriolytic activity, cell lawn ([6]; APHA B00964, 50 μg/ml): −
- growth inhibition, freshly plated cells ([6]; APHA B00964, 50 μg/ml): −
- bacteriolytic activity, cell lawn ([6]; APHA B00976, 50 μg/ml): −
- growth inhibition, freshly plated cells ([6]; APHA B00976, 50 μg/ml): −
- bacteriolytic activity, cell lawn ([6]; APHA G00033, 50 μg/ml): −
- growth inhibition, freshly plated cells ([6]; APHA G00033, 50 μg/ml): −
- bacteriolytic activity, cell lawn ([6]; APHA W100102, 50 μg/ml): −
- growth inhibition, freshly plated cells ([6]; APHA W100102, 50 μg/ml): −
- bacteriolytic activity, cell lawn ([6]; NCTC 2837, 50 μg/ml): −
- growth inhibition, freshly plated cells ([6]; NCTC 2837, 50 μg/ml): −
- bacteriolytic activity, cell lawn ([6]; NCTC 8237, 50 μg/ml): −
- growth inhibition, freshly plated cells ([6]; NCTC 8237, 50 μg/ml): −
- bacteriolytic activity, cell lawn ([6]; NCTC 8238, 50 μg/ml): −
- growth inhibition, freshly plated cells ([6]; NCTC 8238, 50 μg/ml): −
- bacteriolytic activity, cell lawn ([6]; NCTC 8239, 50 μg/ml): −
- growth inhibition, freshly plated cells ([6]; NCTC 8239, 50 μg/ml): −
- bacteriolytic activity in turbidity reduction assay [7]: minimal bacteriolytic activities
- MBC ([8]; Cp6, molar basis): >174 µM
- MIC ([8]; Cp6, molar basis): >174 µM
- MBC ([8]; Cp6, ~2.1E4 cells/mL): >2500 µg/mL
- lysozyme loading not able to inhibit overnight growth ([8]; Cp6, ~2.1E4 cells/mL): > 2.5 mg/mL
- MIC ([8]; Cp6, ~2.1E4 cells/mL, overnight at 41° C.): >2500 µg/mL

Molecule: CC1(C)S[C@@H]2[C@H](NC(=O)[C@H](N)c3ccccc3)C(=O)N2[C@H]1C(=O)O [Ampicillin]
- antimicrobial activity in spot assay (clearance zone) ([1]; NCTC 2837, CL (cell lawn)): −
- antimicrobial activity in spot assay (clearance zone) [1, 10]: +
- antimicrobial activity in spot assay (clearance zone) ([1]; NCTC 8235, CL): −
- antimicrobial activity in spot assay (clearance zone) ([1]; NCTC 8235, FP): +
- antimicrobial activity in spot assay (clearance zone) ([1]; NCTC 8237, CL): −
- antimicrobial activity in spot assay (clearance zone) ([1]; NCTC 8237, FP): +
- antimicrobial activity in spot assay (clearance zone) ([1]; NCTC 8238, CL): −
- antimicrobial activity in spot assay (clearance zone) ([1]; NCTC 8238, FP): +
- antimicrobial activity in spot assay (clearance zone) ([1]; NCTC 8239, CL): −
- antimicrobial activity in spot assay (clearance zone) ([1]; NCTC 8239, FP): +
- antimicrobial activity in spot assay (clearance zone) ([1]; NCTC 8359, CL): −
- antimicrobial activity in spot assay (clearance zone) ([1]; NCTC 8359, FP): +
- antimicrobial activity in spot assay (clearance zone) ([1]; NCTC 8678, CL): −
- antimicrobial activity in spot assay (clearance zone) ([1]; NCTC 8678, FP): +
- antimicrobial activity in spot assay (clearance zone) ([1]; NCTC 10578, CL): −
- antimicrobial activity in spot assay (clearance zone) ([1]; NCTC 10578, FP): +
- antimicrobial activity in spot assay (clearance zone) ([2]; DSMZ 753, CL): −
- antimicrobial activity in spot assay (clearance zone) ([3]; DSMZ 1351, CL): −
- antimicrobial activity in spot assay (clearance zone) ([3]; DSMZ 1351, FP): +
- antimicrobial activity in spot assay (clearance zone) ([4]; DSMZ 6011, CL): −
- antimicrobial activity in spot assay (clearance zone) ([4]; DSMZ 6011, FP): −
- antimicrobial activity in spot assay (clearance zone) ([5]; DSMZ 20083, CL): −
- antimicrobial activity in spot assay (clearance zone) ([5]; DSMZ 20083, FP): +

Molecule: CN[C@@H]1[C@H](O)[C@H](NC)[C@H]2O[C@@]3(O)C(=O)C[C@@H](C)O[C@H]3O[C@@H]2[C@H]1O [spectinomycin]
- effect on C. perfringens growth in spot assay [1]: no effect
- effect in spot assay [1]: no effect

Molecule: NC[C@H]1O[C@H](O[C@H]2[C@H](O)[C@@H](O[C@H]3O[C@H](CO)[C@@H](O)[C@H](N)[C@H]3O)[C@H](N)C[C@@H]2N)[C@H](O)[C@@H](O)[C@@H]1O [kanamycin]
- effect in spot assay [1]: no effect

B1: AMI3CPF4969: endolysin sequence, SEQ ID NO: 11 (protein)
chain: QSRSDSNFKGIDISNWQKGINLNQLKERGYDVCYIKITEGKGYVDPCFEENYNKAIAAGMKVGVYHYWRGTSSAIEQANNIVRTLGNKHIDCKIAIDVEQTDGLSYGELNNSVLQLAEELERLIGAEVCIYCNTNYARNVLDSRLGKYSLWVAHYGVNKPGDNPIWDKWAGFQYSENGTSNVNGSLDLDEFTEEIFINKESSKVTENKLFSTNARALVALDPRDNPSDNYNDLGEIYEGERIQVLAEVCDKEDYLPVKYWKDSEGRESGKVWIRSKQDYMMIDTYHRVFNVITQLDARYEPSSDSATMGYVKNGERLYVHRTEGNYSLCTYFAGNGYKTAWFTAKYLER
modifications: AMI3CPF4969
- fold enhancement of PGN degradation activity in 54D algal extract vs PBS, pH 7.0 [9]: ≤ 44 fold
